Results on 1 compound are retold here after US20090233848A1, “Pea15 as a Tumor Suppressor Gene” (priority 2004, published 2009).

The assay relates to MDA-MB-361 tumor xenografts. In words: Tumor growth in HER2-overexpressing MDA-MB-361 breast cancer xenograft model. To be noted: 20 μg DNA; paclitaxel 15 mg/kg i.p.; compared with LPD-Luciferase. The class given is in vivo, nude mice.

Description: Female nude mice were inoculated with HER2-overexpressing MDA-MB-361 cells in the mammary fat pad. After the formation of 8-10 tumors per group (5 animals per group, -2 tumors per animal), mice were given one of the following treatments: naked E1A DNA (20 μg DNA, light circles), vehicle only (small squares), LPD-luciferase (20 μg DNA, triangles), LPD-E1A (20 μg DNA, dark circles), paclitaxel (15 mg/kg, light triangles), or LPD-E1A (20 μg DNA) plus paclitaxel (15 mg/kg) (large squares). The tumor growth ratio was determined by comparing the size of the treated tumors with the size of the original tumor before any treatment. The error bars indicate s.e.m.

In the case of `CC(=O)O[C@H]1C(=O)[C@@]2(C)[C@H]([C@H](OC(=O)c3ccccc3)[C@]3(O)C[C@H](OC(=O)[C@H](O)[C@@H](NC(=O)c4ccccc4)c4ccccc4)C(C)=C1C3(C)C)[C@]1(OC(C)=O)CO[C@@H]1C[C@@H]2O` [paclitaxel], the tumor growth entry is reported as “decreased tumor growth”.
